{"source": "patent US20240108662A1", "about": "“ENGINEERED CELLS FUNCTIONALIZED WITH IMMUNE CHECKPOINT MOLECULES AND USES THEREOF” (The University of North Carolina at Chapel Hill, priority 2020, published 2024)", "format_in_all_cases": "cell-based, mouse", "key": {"MOLs": {"tested_on": "MOLs", "experiment": "MTS viability assay, MOLs", "description": "(§1) In vitro toxicity of Ac4ManNAz and LEF, and viabilities of functionalized MSCs and MOLs: In vitro toxicities of Ac4ManNAz and LEF against MSCs and MOLs, and the viabilities of functionalized MSCs and MOLs were quantified by MTS assay. Briefly, treated/functionalized cells were cultured in complete media for 4 days. The phenol-red media was replaced by phenol red-free DMEM (supplemented with 10% FBS) before quantifying the viabilities via MTS assay according to the manufacturer's protocol. The MSCs were seeded at a density of 2×10^4 cells per well and the MOLs were seeded at a density of 1×10^4 cells per well in a 96-well plate."}, "MSCs": {"tested_on": "MSCs", "experiment": "MTS viability assay, MSCs", "description": "as §1"}, "[1]": {"tested_on": "2D2 cells (MOG-specific CD4+ T cells)", "experiment": "PD-1 and CTLA-4 expressions of myelin-specific 2D2 cells after co-culture (FACS)", "settings": "E:T 10:1, 48 h", "description": "Myelin-specific CD4 T cell in vitro activation: Mouse IFN-γ and mouse IL-17A secreted from the activated myelin-specific 2D2 cells were quantified by ELISA assays as previously reported^56. […] The cell culture media (contain mainly the 2D2 cells) were preserved. 2D2 cells were collected from the cultured media via centrifugation at 1,000 g for 10 min. The moue IFN-γ and mouse IL-17A concentrations in the supernatants were quantified via mouse IFN-γ ELISA kit (ab100689; Abcam, Cambridge, MA) and mouse IL-17A ELISA kit (ab199081; Abcam, Cambridge, MA), according to manufacturer's instructions. […] MIH4, catalog number: 53-9969-42, Invitrogen), PE-labeled anti-mouse CTLA-4 antibody (clone: […] Stained cells were fixed with 4% paraformaldehyde (4% PFA; Sigma) and kept in dark at 4° C. before further FACS study."}}, "data": [{"smiles": "Cc1oncc1C(=O)Nc1ccc(C(F)(F)F)cc1", "note": "[small-molecule LEF, Leflunomide]", "values": [{"measurement": "in vitro toxicity against MOLs", "setting": "MOLs", "result": "insignificant toxicity"}, {"measurement": "in vitro toxicity against MSCs", "setting": "MSCs", "result": "moderate in vitro toxicity"}, {"measurement": "upregulation of PD-1 and CTLA-4 in co-cultured 2D2 cells", "setting": "[1]", "result": "increased the expression of CTLA-4 in the co-cultured 2D2 cells"}]}]}
